Tested on: Mucin type II from porcine stomach
Test: Peptide diffusion across a mono-component mucin layer (Transwell donor to acceptor chamber)
Type: in vitro ADME
Settings: for time window in which acceptor concentration plateaued / leveled off: donor 266 and 133 μg/mL (both concentrations); for time window in which acceptor concentration plateaued / leveled off / time window in which acceptor concentration plateaued: mucin layer, pH 6.8, HPLC; for maximum concentration in the acceptor chamber: ~2.5% (w/v) Type II porcine mucin on Transwell, phosphate buffer pH 6.8, 37°C, over 6 h, HPLC-UV 214 nm
Description: Around 2.5% (w/v) of Type II porcine mucin was added to the donor side of the Transwell™ plate along with 300–1000 μL of 6.8 pH phosphate buffer. The mixture was shaken at 37°C for 45–60 min until the proper suspension was attained. Then, 1–2 mL of phosphate buffer at 6.8 pH was added to the acceptor side of the Transwell™ plate.
Fig. 1 A schematic diagram of the diffusion chamber to study peptide diffusion through a mucin layer. The well consists of donor and acceptor chambers separated by a mucin layer. The peptide was added to the donor chamber, and the diffusion of the peptide was monitored by its appearance in the acceptor chamber. The peptide in the acceptor chamber was sampled as a function of time, and the peptide concentration was determined by fluorescence spectroscopy, HPLC, or mass spectrometry
Initially, FITC-ADT10 and FITC-HAV10 peptides were used to test the mucin model in phosphate buffer at pH 6.8. Different concentrations of peptide in phosphate buffer at pH 6.8 were added to the donor chamber; the acceptor chamber contained a phosphate buffer at pH 6.8 in the Transwell™. At predetermined time points, 100 μL aliquots were taken from the acceptor chamber, transferred into 96-well plates, and replaced with pre-heated phosphate buffer pH 6.8. The aliquots were then analyzed by fluorescence spectroscopy plate reader at […].
The diffusion of each unlabeled peptide from the donor-to-acceptor chambers was analyzed by Agilent® 1200 HPLC equipped with a Zorbax C18 column with 3.5 μm particle size and dimensions of 4.6 × 50 mm. The column temperature was held at 30°C during the chromatographic run. Mobile phase A was 0.1% trifluoroacetic acid in Milli-Q water, and mobile phase B was 0.085% trifluoroacetic acid in acetonitrile. The detector was a UV–Vis detector monitoring at 214 nm wavelengths. Calibration curves were prepared in phosphate buffer pH 6.8 in concentrations ranging from 1 to 266 μg/mL.
Student t-tests were used to analyze the difference between the percentage diffused of FITC-HAV10 and FITC-ADT10, octreotide and octreotide A5, and lanreotide and lanreotide A5. The difference in diffusion percentages of ADT peptides was analyzed using ANOVA with Student − Newman − Keul post hoc comparison of the means and Dunnett’s Test comparing DTPPD, DTPPT, and DTPPVK with ADTC5. Statistical significance was set at p < 0.05 unless otherwise stated.

Row | Molecule | time window in which acceptor concentration plateaued / leveled off | time window in which acceptor concentration plateaued (donor 133 μg/mL) | maximum concentration in the acceptor chamber (donor 133 μg/mL) | time window in which acceptor concentration plateaued (donor 266 μg/mL) | maximum concentration in the acceptor chamber (donor 266 μg/mL)
1 | Cyclo(1,7)Ac-CDTPPVC-NH2 (disulfide) [ADTC5, cyclic ADT cadherin peptide that modulates intercellular junctions] | 2 to 6 h |  |  |  | 
2 | CC(C)[C@@H]1NC(=O)[C@H](CCCCN)NC(=O)[C@@H](Cc2c[nH]c3ccccc23)NC(=O)[C@H](Cc2ccc(O)cc2)NC(=O)[C@@H](NC(=O)[C@H](N)Cc2ccc3ccccc3c2)CSSC[C@@H](C(=O)N[C@H](C(N)=O)[C@@H](C)O)NC1=O [Lanreotide] | 4 to 6 h |  |  |  | 
3 | C[C@@H](O)[C@@H]1NC(=O)[C@H](CCCCN)NC(=O)[C@@H](Cc2c[nH]c3ccccc23)NC(=O)[C@H](Cc2ccccc2)NC(=O)[C@@H](NC(=O)[C@H](N)Cc2ccccc2)CSSC[C@@H](C(=O)N[C@H](CO)[C@@H](C)O)NC1=O [Octreotide] |  | 4 to 6 h | 0.00593 mg/mL | 2 to 6 h | 0.0116 mg/mL

From publication PMC12830042, “Investigating the impact of charge and hydrophilicity on peptide-mucin interactions using a simple mucin model” (AAPS open, 2025)
